Assays:
[1] = target: T1, HER-2 kinase (GST-HIS6-Thrombin fusion, amino acids 679 to 1255 of HER-2) (Homo sapiens, UniProt P04626); assay: HER-2 Kinase Assay; type: biochemical; conditions: for inhibition at 100 µM: test concentration of 100 μM, read-out: HER2 % inhibition; for IC50: read-out: HER2 IC50
T1 construct: HIS6-Thrombin site (N); purchased Proqinase (Freiburg, Germany)
Experimental: The HER-2 kinase used was purified at Proqinase (Freiburg, Germany) from a construct that consisted of a fusion of GST (Glutathione-S-Transferase), HIS6-Thrombin and the nucleotides encoding amino acids 679 to 1255 of HER-2 (Accession Number M11730).
A mixture of a 10× kinase reaction buffer (600 mM Hepes at pH 7.5, 30 mM Magnesium Chloride, 0.03 mM Sodium Vanadate and 500 μg/mL PEG 20,000), DTT (1.2 mM final from a 10 mM stock), ATP (1 μM from a 10 mM stock), biotinylated polyGluTyr (1.5 ng/μL final from stock of 1 μg/μL) prepared by Upstate Biotechnologies, Lake Placid, N.Y.), Manganese Chloride (3 mM final from a 1 M stock), γ-^33P-ATP (10 μCi/μL stock) and water (70 μL/well) was added to each well of a Streptavidin Flashplate (Cat. # SMP103, NEN, Boston, Mass.).
Test compound stock (1 μL) was added to the appropriate wells. Diluted GSTHER2 kinase (6.7 ng/μL diluted into 50 mM Tris-HCl at pH 8.0 and 0.1% bovine serum albumin) (30 μL) was added (total volume of 200 ng/well) to initiate the reactions.
The reaction plates were incubated at 30° C. for 1 hr. The reaction was terminated by aspirating the reaction mixture from the plate wells and washing the wells three times with a 1× PBS stop buffer (300 μL) and 100 mM EDTA. After the final wash, the same stop buffer (200 μL) was again added to the wells. The plates were then sealed and read on the TopCount scintillation counter.
Test compounds were assayed in triplicate at 8 concentrations at one-log dilutions starting at 100 μM. A maximum and minimum signal for the assay was determined on each plate. The percent inhibition of a test compound was calculated according to the formula: […]
(§1) For a series of test concentrations, the IC50 was derived by graphing percent inhibition against the log of the concentrations tested for a given compound.

[2] = system: HeLa cervical adenocarcinoma; assay: Inhibition of in vitro cell proliferation (14C-thymidine incorporation), HeLa; type: cell-based; conditions: Homo sapiens, HeLa cells
Experimental: (§2) The ability of a test compound to inhibit the proliferation of cell growth was determined by measuring incorporation of ^14C-labelled thymidine into newly synthesized DNA within the cells. This method was used on American Type Culture Collection (ATCC, Virginia) cell lines derived from carcinomas originating from several tissues such as HeLa cervical adenocarcinoma (ATCC Cat. #CCL-2), HCT-116 colon carcinoma (ATCC Cat. #CCL-247), and A375 malignant melanoma (ATCC Cat. #CRL-1619).
(§3) The carcinoma cells are trypsinized and counted. The cells (3000-8000 count) are added to each well of a 96-well CytoStar tissue culture treated scintillating microplate (Amersham #RPNQ0160) in complete medium (100 μL) and the plate is then incubated in complete medium for 24 hrs at 37° C. in an inert atmosphere containing 5% CO2.
(§4) Test compound (1 μL) in 100% DMSO is added to the plate test-wells with DMSO only added to control-wells. The plate is incubated in complete medium for a second 24 hr period at 37° C. in an atmosphere containing 5% CO2.
(§5) An aliquot of a solution of Methyl ^14C-thymidine (56 mC/mmol) (NEN #NEC568 or Amersham #CFA532) in complete medium (20 uL to provide 0.2 μCi/well) is then added to each well and the plate is incubated for a third 24 hr period at 37° C. in an atmosphere containing 5% CO2.
(§6) The plate contents are then discarded, the plate is washed twice with PBS (200 μL) and then PBS (200 μL) is added to each well. The plate is sealed and the degree of methyl ^14C-thymidine incorporation is quantified on a Packard Top Count.

A375 malignant melanoma = assay: Inhibition of in vitro cell proliferation (14C-thymidine incorporation), A375; type: cell-based; conditions: Homo sapiens, A-375, A375 cells
Experimental: as §2, §3, §4, §5, §6

HCT-116 colon carcinoma = assay: Inhibition of in vitro cell proliferation (14C-thymidine incorporation), HCT116; type: cell-based; conditions: Homo sapiens, HCT116 cells
Experimental: as §2, §3, §4, §5, §6

[3] = target: T2, EGFR kinase (GST fusion of intracellular portion of EGFR, NM_005228) (Homo sapiens, UniProt P00533); assay: EGFR Kinase Assay; type: biochemical; conditions: for inhibition at 2 µM: test concentration of 2 μM
T2 construct: The intracellular portion of EGFR started at nucleotide 2189 (corresponding to amino acid 667) and ended at the termination codon; made in house; host or cells: Sf9 insect cells (baculovirus)
T2 sequence (P00533 669-1210 limits assumed): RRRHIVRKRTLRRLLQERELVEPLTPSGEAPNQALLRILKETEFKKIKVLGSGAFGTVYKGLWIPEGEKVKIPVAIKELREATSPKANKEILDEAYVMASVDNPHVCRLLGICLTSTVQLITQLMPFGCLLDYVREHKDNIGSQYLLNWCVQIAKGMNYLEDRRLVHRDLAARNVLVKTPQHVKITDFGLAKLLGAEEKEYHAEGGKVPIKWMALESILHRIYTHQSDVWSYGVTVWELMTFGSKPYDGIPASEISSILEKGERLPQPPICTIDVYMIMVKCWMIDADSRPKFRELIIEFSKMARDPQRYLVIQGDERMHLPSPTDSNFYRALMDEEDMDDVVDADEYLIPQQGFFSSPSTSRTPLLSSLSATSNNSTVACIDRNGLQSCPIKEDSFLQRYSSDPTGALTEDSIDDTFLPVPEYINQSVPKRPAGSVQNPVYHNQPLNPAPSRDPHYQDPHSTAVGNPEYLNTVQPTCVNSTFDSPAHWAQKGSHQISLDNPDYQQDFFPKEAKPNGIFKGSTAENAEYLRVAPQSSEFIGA
Source text: The portion was PCR amplified with primers that added the lambda attB sequences to each end, recombined into an entry vector, then into a (GST destination vector (as described in Gateway Technologies Manual by Invitrogen Corporation, Carlsbad, Calif.).
The destination vector was recombined in the DH10BAC strain of bacteria to produce a bacmid. The bacmid was transfected into Sf 9 cells and the supernatant containing the baculovirus was collected. The GSTEGFR protein was purified using large cultures of Sf 9 cells infected with stock virus. After an appropriate period of time, the cells were collected and lysed. The GSTEGFR was then purified from the lysate on Glutathione-Sepharose columns (as described by Amersham Biosciences, Buckinghamshire, United Kingdom).
The free biotin was separated from the biotinylated polyGluTyr on a gel filtration column.
A mixture of a 10× kinase buffer (500 mM Tris at pH 8.0, 100 mM Magnesium Chloride and 1 mM Sodium Vanadate), DTT (1 mM final from 500 mM stock), ATP (5 μM final from […]), biotinylated polyGluTyr (10 μg/μL stock), γ-^33P ATP (10 μCi/μL stock) and water was added to each well (90 μL/well) of a Streptavidin Flashplate (Perkin Elmer, Wellesley, Mass.).
Test compound in 100% DMSO (2 μL) was added to the appropriate wells. Diluted GSTEGFR (1:300 dilution in 50 mM Tris at pH 8.0 and 0.1% bovine serum albumin) (10 μL) was added to the wells to initiate the reactions.
The plates were incubated at 30° C. for 1 hr with shaking, The reacted contents were removed and the plates were sequentially washed three times with a 1×PBS stop buffer (300 μL without Magnesium and Calcium) and 100 mM EDTA. After the final wash, the same stop buffer (200 μL) was added to the wells. The plates were then sealed and read on the TopCount scintillation counter.
Test compounds were assayed in triplicate at 16 concentrations at half-log dilutions starting at 200 μM. A maximum and minimum signal for the assay was determined on each plate. The percent inhibition of a test compound was calculated according to the formula
as §1

T1 sequence (P04626 679-1255): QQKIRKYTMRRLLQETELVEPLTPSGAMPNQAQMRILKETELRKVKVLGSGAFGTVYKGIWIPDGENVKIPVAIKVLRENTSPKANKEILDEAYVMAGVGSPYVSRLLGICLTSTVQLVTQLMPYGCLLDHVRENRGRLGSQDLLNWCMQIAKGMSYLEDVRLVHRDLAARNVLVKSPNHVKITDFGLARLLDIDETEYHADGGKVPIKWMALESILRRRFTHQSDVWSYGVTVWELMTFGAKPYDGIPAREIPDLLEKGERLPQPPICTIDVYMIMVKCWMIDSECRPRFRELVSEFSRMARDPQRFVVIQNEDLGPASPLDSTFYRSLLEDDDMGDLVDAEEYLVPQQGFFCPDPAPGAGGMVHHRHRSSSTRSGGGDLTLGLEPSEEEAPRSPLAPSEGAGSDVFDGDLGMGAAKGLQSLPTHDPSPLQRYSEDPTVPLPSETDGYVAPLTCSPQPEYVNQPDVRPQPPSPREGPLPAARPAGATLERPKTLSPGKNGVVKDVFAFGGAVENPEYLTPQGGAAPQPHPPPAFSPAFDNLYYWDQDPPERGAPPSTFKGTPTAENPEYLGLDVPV

SMILES	inhibition at 100 µM [1] [%]	IC50 [2] [µM]	IC50 (A375 malignant melanoma) [µM]	IC50 (HCT-116 colon carcinoma) [µM]	IC50 [1] [µM]	inhibition at 2 µM [3] [%]	IC50 [3] [µM]
COC(=O)c1c(N)ncnc1Nc1ccc(OCc2ccccc2)c(Cl)c1 [Cpd 1, 4-amino-6-(4-benzyloxy-3-chloro-phenylamino)-pyrimidine-5-carboxylic acid methyl ester]	92	1.9	1	3	–	–	–
Nc1ncnc(Nc2ccc(OCc3ccccc3)c(Cl)c2)c1C(=O)O [Cpd 2, 4-amino-6-(4-benzyloxy-3-chloro-phenylamino)-pyrimidine-5-carboxylic acid]	–	> 10	> 10	> 10	0.78	–	–
Nc1ncnc(Nc2ccc(OCc3ccccc3)c(Cl)c2)c1C(=O)OCCN1CCOCC1 [Cpd 3, 4-amino-6-(4-benzyloxy-3-chloro-phenylamino)-pyrimidine-5-carboxylic acid 2-morpholin-4-yl-ethyl ester]	–	> 10	5.1	–	1.38	–	–
Nc1ncnc(Nc2ccc(OCc3ccccc3)c(Cl)c2)c1C(=O)OCc1cccc(F)c1 [Cpd 4, 4-amino-6-(4-benzyloxy-3-chloro-phenylamino)-pyrimidine-5-carboxylic acid 3-fluoro-benzyl ester]	21	> 10	> 10	> 10	–	34	–
CCN(CC)C(=O)c1c(N)ncnc1Nc1ccc(OCc2ccccc2)c(Cl)c1 [Cpd 5, 4-amino-6-(4-benzyloxy-3-chloro-phenylamino)-pyrimidine-5-carboxylic acid diethylamide]	39	> 10	> 10	> 10	–	36	–
COCCNC(=O)c1c(N)ncnc1Nc1ccc(OCc2ccccc2)c(Cl)c1 [Cpd 6, 4-amino-6-(4-benzyloxy-3-chloro-phenylamino)-pyrimidine-5-carboxylic acid (2-methoxy-ethyl)-amide]	33	> 100	> 100	> 100	–	37	–
Nc1ncnc(Nc2ccc(OCc3ccccc3)c(Cl)c2)c1C(=O)NCCN1CCCCC1 [Cpd 7, 4-amino-6-(4-benzyloxy-3-chloro-phenylamino)-pyrimidine-5-carboxylic acid (2-piperidin-1-yl-ethyl)-amide]	–	34	> 1	> 10	10	42	–
Nc1ncnc(Nc2ccc(OCc3ccccc3)c(Cl)c2)c1C(=O)NCCN1CCOCC1 [Cpd 8, 4-amino-6-(4-benzyloxy-3-chloro-phenylamino)-pyrimidine-5-carboxylic acid (2-morpholin-4-yl-ethyl)-amide]	82	> 10	> 10	> 10	–	35	–
COc1ccc(CCNC(=O)c2c(N)ncnc2Nc2ccc(OCc3ccccc3)c(Cl)c2)cc1 [Cpd 9, 4-amino-6-(4-benzyloxy-3-chloro-phenylamino)-pyrimidine-5-carboxylic acid [2-(4-methoxy-phenyl)-ethyl]-amide]	4	> 100	> 100	> 100	–	28	–
Nc1ncnc(Nc2ccc(OCc3ccccc3)c(Cl)c2)c1C(=O)Nc1ccccc1 [Cpd 10, 4-amino-6-(4-benzyloxy-3-chloro-phenylamino)-pyrimidine-5-carboxylic acid phenylamide]	12	> 100	> 100	> 100	–	–	–
COc1ccc(NC(=O)c2c(N)ncnc2Nc2ccc(OCc3ccccc3)c(Cl)c2)cc1 [Cpd 11, 4-amino-6-(4-benzyloxy-3-chloro-phenylamino)-pyrimidine-5-carboxylic acid (4-methoxy-phenyl)-amide]	0	> 100	> 100	> 100	–	36	–
NNC(=O)c1c(N)ncnc1Nc1ccc(OCc2ccccc2)c(Cl)c1 [Cpd 12, 4-amino-6-(4-benzyloxy-3-chloro-phenylamino)-pyrimidine-5-carboxylic acid hydrazide]	–	3	1.7	3.4	0.15	–	–
Nc1ncnc(Nc2ccc(OCc3ccccc3)c(Cl)c2)c1C(=O)NNC(=O)CCN1CCOCC1 [Cpd 13, 4-amino-6-(4-benzyloxy-3-chloro-phenylamino)-pyrimidine-5-carboxylic acid N′-(3-morpholin-4-yl-propionyl)-hydrazide]	–	> 100	> 100	> 100	5.7	–	0.62
Nc1ncnc(Nc2ccc(OCc3ccccc3)c(Cl)c2)c1C=O [Cpd 14, 4-amino-6-(4-benzyloxy-3-chloro-phenylamino)-pyrimidine-5-carboxaldehyde]	63	–	–	–	–	–	–
